Test results reported in US20160257931A1, “METHOD FOR CULTURE OF CORNEAL ENDOTHELIAL CELLS, PROCESS FOR PRODUCTION OF CORNEAL ENDOTHELIAL CELL SHEET FOR TRANSPLANTATION PURPOSES, AND CULTURE KIT FOR CORNEAL ENDOTHELIAL CELLS” (CORNEA REGENERATION INSTITUTE CO., LTD., priority 2010, published 2016).

Assays:
Format in all cases: cell-based
[1] = test system: human corneal endothelial cell; test: Primary culture of corneal endothelial cells in the presence of ascorbyl 2-phosphate; details: for Number of obtained cells in primary culture: Asc-2P(+) 100 μg/ml in basal medium, atelocollagen-coated dish
Description: Sclerocorneal segments prepared from 10 examples obtained from human eyes (from 14 to 69 years old) from Rocky Mountain Lions Eye Bank in a low temperature preservation state in a preservation solution (trade name: Optisol manufactured by Chiron corporation). The segments were 6 to 8 days old after death.
The sclerocorneal segments were transferred into a 35 mm petri dish, and the endothelial face was washed with DME medium containing 15% fetal calf serum (FCS) and 2 ng/ml basic fibroblast growth factor (bFGF) (hereinafter to be indicated as the basal medium).
Using ultrafine forceps, the corneal endothelium was peeled off in a sheet with the Descemet's membrane from the corneal inner periphery to the center and transferred into a 35 mm petri dish. The Descemet's membrane segment to which the corneal endothelial cells were attached was further cut into small pieces of about 2 mm square on the petri dish, and only the Descemet's slice pieces without attachment of a parenchymal tissue in a cottony form were recovered in a low adsorption centrifugation tube (manufactured by SUMITOMO BAKELITE Co., Ltd.), and incubated in the basal medium containing 0.2% collagenase (trade name: collagenase A, collagenase activity: >0.15 U/mg, manufactured by Roche K.K.) at 37° C., 5% CO2 for 1-3 hr.
The collagenase-treated cells were diluted with the basal medium, centrifugal washing (20 g, 2 min) was repeated three times, and the cells floating in the supernatant were removed. The cells were diluted with phosphate buffered saline (PBS), and centrifugal washing (20 g, 2 min) was performed once in the same manner. 0.5% Trypsin/0.2% ethylenediamine tetraacetic acid (EDTA) was added to the precipitated cell mass, and the mixture was incubated at 37° C., 5% CO2 for 5 min. The basal medium was added and the mixture was centrifuged (500 g, 5 min) to give cell pellets. The obtained cell pellets were resuspended in the basal medium containing 100 μg/ml ascorbyl 2-phosphate (manufactured by Wako Pure Chemical Industries, Ltd.) and the comparison basal medium without containing the same. The cells were each seeded on a dish prepared by the following method, and cultured in an incubator at 37° C., 5% CO2 for 2-4 weeks while exchanging the medium every 2-3 days.
5 mg/ml Atelocollagen (bovine dermis-derived acidic collagen solution, trade name: IAC-50, manufactured by KOKEN CO., LTD) was diluted 100-fold with 10 mM acetic acid, 1 ml thereof was added to a 35 mm dish, left standing at 37° C. for 1 hr, and washed twice with PBS (2 ml) to prepare a dish coated with atelocollagen.

[2] = test system: human corneal endothelial cell; test: Subculture of corneal endothelial cells (passage stability)
Description: The primary cultured cells (10 donors, 14- to 69-year-old) obtained in the above-mentioned 1 were each subcultured as follows.
The primary cultured cells were washed with PBS and dispersed in 0.5% trypsin/0.2% EDTA. The basal medium was added thereto, the mixture was centrifuged (500 g, 5 min), and suspended in the basal medium containing 100 μg/ml ascorbyl 2-phosphate and comparison basal medium without containing the same. The cells were seeded at 1000 cells/cm^2 on a dish coated with atelocollagen, which was prepared in the same manner as in the above-mentioned 1, and cultured at 37° C., 5% CO2. When the cells reached confluence, a similar passage operation was repeated.

[3] = test system: human corneal endothelial cell; test: Comparison with the conventional culture method on bovine corneal endothelial cell-producing extracellular substrate; details: FIG. 3
Description: According to a conventionally-known method (Miyata K, Drake J, Osakabe Y, Hosokawa Y, Hwang D, Soya K, Oshika T, Amano S. Cornea. 2001 20:59-63), a human corneal endothelial cell was isolated and cultured. The method is briefly described in the following. The cornea was transferred into a 35 mm petri dish, and the endothelial face was washed with the basal medium. Using ultrafine forceps, the corneal endothelium was peeled off in a sheet with Descemet's membrane from the corneal inner periphery to the center, and transferred into a 35 mm petri dish. The Descemet's membrane was further cut into small slice pieces of about 2 mm square on the petri dish, and placed with the endothelial surface facing downward on a dish coated with an extracellular substrate produced by corneal endothelial cells of a fetal calf. The dish was carefully moved into an incubator at 37° C., 5% CO2, and cultured for 2-3 weeks while exchanging the medium every 2-3 days.
In any passage, more cells were obtained in the ascorbyl 2-phosphate addition group, and the total cell number reached after completion of the three passage operations was higher when cultured in the basal medium containing ascorbyl 2-phosphate.

Structure (SMILES): O=C1O[C@H]([C@@H](O)CO)C(O)=C1OP(=O)(O)O [Asc-2P, ascorbyl 2-phosphate]
- Number of obtained cells in primary culture ([1]; donor No. 1, 27 days of culture): 59 ×10e4 cells
- Number of obtained cells in primary culture ([1]; donor No. 2, 21 days of culture): 32 ×10e4 cells
- Number of obtained cells in primary culture ([1]; donor No. 3, 21 days of culture): 35 ×10e4 cells
- Number of obtained cells in primary culture ([1]; donor No. 4, 22 days of culture): 39 ×10e4 cells
- Number of obtained cells in primary culture ([1]; donor No. 5, 26 days of culture): 66 ×10e4 cells
- Number of obtained cells in primary culture ([1]; donor No. 6, 22 days of culture): 27 ×10e4 cells
- Number of obtained cells in primary culture ([1]; donor No. 7, 26 days of culture): 60 ×10e4 cells
- Number of obtained cells in primary culture ([1]; donor No. 8, 23 days of culture): 308 ×10e4 cells
- Number of obtained cells in primary culture ([1]; donor No. 9, 24 days of culture): 405 ×10e4 cells
- Number of obtained cells in primary culture ([1]; donor No. 10, 29 days of culture): 20 ×10e4 cells
- Number of corneal endothelial cells on completion of the primary culture, versus no addition ([1]; all 10 donors (14 to 69 years old), 100 μg/ml): strikingly increased
- Cell form in primary culture ([1]; donor Nos. 5 and 7, basal medium containing ascorbyl 2-phosphate): flagstone-like cell images on the entire face of the culture dish
- Number of cells obtained on completion of the subculture, versus no addition ([2]; all 10 cases, 100 μg/ml, seeded at 1000 cells/cm^2, repeated subculture): higher
- Number of cells obtained on repeated subculture, addition group versus non-addition group ([2]; donor No. 8, FIG. 2 (a), (b)): higher
- Cell form on completion of 6 passages ([2]; donor No. 8, FIG. 2 (c)): maintained a flagstone-like form
- Proliferation efficiency versus conventional method [3]: higher proliferation efficiency
- Total cell number reached after completion of the three passage operations, versus conventional method ([3]; atelocollagen plus ascorbyl 2-phosphate versus bovine corneal endothelial cell-producing extracellular substrate): higher
